System: Mus musculus
Assay: Compound (0.4 mmol/Kg) was evaluated for its ability to inhibit B16BL6 pulmonary metastasis in mice. The number of lung metastases of treated (T) and nontreated or control (C) is expressed as ratio, T/C.
Format: functional

SMILES	T/C
C[C@](CCC(=O)O)(C(=O)O)N1Cc2ccccc2C1=O	0.15
O=C(O)CCC(C(=O)O)N1Cc2ccccc2C1=O (configuration not stated)	0.2
O=C(O)CCC(C(=O)O)N1Cc2cccc(O)c2C1=O (configuration not stated)	0.95
CC(CCC(=O)O)(C(=O)O)N1Cc2ccccc2C1=O (configuration not stated)	0.25
O=C(O)CCC(C(=O)O)N1Cc2ccc(O)cc2C1=O (configuration not stated)	0.9
C[C@@](CCC(=O)O)(C(=O)O)N1Cc2ccccc2C1=O	0.7
O=C1CCC(N2C(=O)c3ccccc3C2=O)C(=O)N1 (configuration not stated) [THALIDOMIDE]	0.9

Source: ChEMBL document CHEMBL1132333, “Synthesis and enantiomeric separation of 2-phthalimidino-glutaric acid analogues: potent inhibitors of tumor metastasis” (1999)
